# Experimental data published in US5744499A, “Apoptosis-modulating factors influencing the intracellular concentration of methional/malondialdehyde” (Centre International de Recherches Dermatologiques Galderma, priority 1994, dated 1998).
# pIC50: −log10 of the molar value.
# What was measured:
# [1] = system: HeLa cells; experiment: Effect of metabolites on the growth of HeLa cells; format: cell-based; details: Homo sapiens, 72 h, three days at 37° C., estimated by protein content, average of 3 or 4 experiments, read-out: IC50 (concentration required to inhibit cell growth by 50%)
# Description: HeLa cells (0.5×10^6 per Petri dish) were cultured in 3 ml of a minimum essential Eagle medium containing 10% by weight dialyzed fetal calf serum. After four hours, methional (10 μM-1 mM), methionol (10 μM-20 mM), methylthiopropionic acid (MTPA) (1 μM-20 mM), L-methionine (1 μM-20 mM) or 4-methylthio-2-oxobutanoic acid (MTOB) (1 μM-20 mM) were added to each of the three dishes. After three days at 37° C., the cells were washed twice in a buffered, phosphatized saline medium having a pH of 7.5 (PBS medium) and collected in the same type of buffer.
# Cell growth was assessed by measuring protein content (see technique described in O. H. Lowry, N. J. Rosebrouh, A. L. Farr, and R. J. Randall, J. Biol. Chem., 193, 265-275 (1951)) or the DNA content in the lysate using a bisbenzimide trihydrochloride solution (Hoechst 33258) (see W. D. Jarvis, R. N. Kolesnick, F. A. Fornari, R. S. Traylor, D. A. Gewirtz, and S. Grant, Proc. Natl. Acad. Sci. USA, 91, 73-77 (1994)), or by determining […] using 3-(4,5-dimethylthiazol-2-yl)-2,5-diphenyl-tetrazolium bromide (MTT) (see T. Mosmann, J. of Immunology, Methods, 65, 55-63 (1983)).
# Each value of is the average of 3 or 4 experiments as estimated by protein content.
# IC50 represents the concentration of compound required to inhibit cell growth by 50%.
# [2] = system: BAF3 cells; experiment: DNA fragmentation in BAF3 cells, agarose gel electrophoresis; format: cell-based, mouse; details: 200-800 μM, medium with IL3, 8 hours
# Description: K. L. Collins, J. Marvel, […] A. Lopez-[…]. Exp. Med., 176, 1043-1051 (1992)]. […] After 8 hours of contact, the cells were washed three times in a phosphatized buffered saline medium, pH=7.5 (PBS medium). […] The supernatants were decanted and analyzed as indicated below. For purposes of comparison, the same cultures were grown in a medium, either with IL3 (+IL3) or without IL3 (-IL3). The DNA fragments obtained were analyzed qualitatively using the method described, in particular, in W. D. Jarvis, […], and S. Grant, Proc. Natl. Acad. Sci. USA, 91, 73-77 (1994). The supernatants were treated with ribonuclease A (20 μg/ml) for 1 hour at 37° C., and with the proteinase R (100 μg/ml). The DNA was purified using phenol extraction and precipitated with ethanol. […] After electrophoresis (60V, 3 hours), the gels were stained with ethydium bromide.
# [3] = system: BAF3 cells; experiment: DNA fragmentation in BAF3 cells, spectrofluorometric analysis (Hoechst 33258); format: cell-based, mouse
# Description: 3×10^6 BAF3 cells were grown in 6 ml of a culture medium containing IL3 in Petri dishes in the presence of different concentrations (200-800 μM) of methional or […], a substrate of the aldehyde dehydogenase. After 8 hours of contact, the cells were washed three times in a phosphatized buffered saline medium, pH=7.5 (PBS medium). These cells were lysed in 2 ml 0.1% Triton X-100, 20 mM EDTA (ethylenediaminetetraacetic acid), 5 mM Tris pH 8, and then centrifuged at 30,000 g at 4° C. for 30 minutes. The supernatants were decanted and analyzed as indicated below.
# For purposes of comparison, the same cultures were grown in a medium, either with IL3 (+IL3) or without IL3 (-IL3).
# Spectrofluorometric analysis was carried out to measure the […] of DNA fragments obtained (<3 kilobases). 1 ml of a solution of bisbenzimide trihydrochloride (Hoechst 33258) (1 μg/ml) in 3 mM sodium chloride, 1 mMd4EDTA, 10 mM Tris, pH=8, was added to 2 ml supernatant. The solutions obtained were analyzed by fluorometry (excitation λ=365 nm, emission λ=460 nm). The quantities of DNA were calculated in relation to highly-purified DNA (0.1 to 1 μh in 2 ml lysis buffer) treated as indicated above and expressed in 10^-9 g DNA collected from 3×10^6 cells.
# [4] = system: murine B16 Fl melanoma cells; experiment: Survival of mice grafted with B16 melanoma cells; format: in vivo, mouse; details: Table 5; three mice; daily injection for 15 days; BCNU 0.1 mg/kg, Compound A 25 mg/kg, Methional 25 mg/kg; control 20.5
# Description: At t=0 day, 10^5 murine B16 Fl melanoma cells were injected into B6D2Fl mice (from the IFFA CREDO Company, France).
# Table 5 reports the results corresponding to averages of the results obtained on three treated mice.
# For the regimens containing multiple compounds, the quantities of each of the compounds used were identical to those of the regimens using the compounds by themselves.
# Survival time was recorded beginning at t=0 day, as indicated above.
# BCNU corresponds to N,N-Bis(2-chloroethyl)-N-nitrosourea. Compound A corresponds to the compound having formula (9), wherein X is a --OH radical.
# Between the two regimens, the latter (to which methional was added) accounted for one-third of the mice surviving more than 60 days. The "average survival time" is the mean of the number of mice dying over the course of the experiment, i.e., within 60 days.
# The procedure of the previous example was repeated, but the regimens and numbers of mice treated varied.
# With respect to this latter regiment, the quantities corresponded to the quantities of compounds used alone. The percentage of long-term survivors corresponded to the percentage of mice which survived beyond 60 days.
# [5] = system: BAF3-bO cells; experiment: Induction of DNA fragmentation by methional in BAF3-bO cells ([3H]-thymidine); format: cell-based, mouse; details: 400 μM methional, 8 hours; control 7%
# Description: (§1) The cells used were a BAF3 lymphocytic cell line, such as that described above. The BAF3-bcl2 cells corresponded to BAF3 cells transfected by the bcl2 gene. The BAF3-bO cells corresponded to BAF3 cells not transfected by the bcl2 gene. As indicated above, the BAF3-bO cells underwent apoptosis (more than 80% of the cells) in the absence of IL3 for 16 hours. On the other hand, the BAF3-bcl2 cells, which were transfected by the bcl2 gene, evidenced no sign of apoptosis in the absence of IL3. Accordingly, they constituted a good model for determining the apoptosis step blocked in these cells, and its potential correlation with the inhibition of malondialdehyde synthesis.
# (§2) The BAF3-bO or BAF3-bcl2 cells were marked by adaptation of the method described in S. Wright et al, J. of Cell. Biochem., 48, 344-355 (1992), by incubating 2.5×10^5 cells/ml with 0.5 μCi [3H]-thymidine for 40 hours at 37° C. After two washings in a culture medium, 2.5×10^6 cells were cultured in the presence of methional. […] The aliquots of the culture medium (1 ml), of the supernatant (0.3 ml), and of the solubilized sediment (0.1 ml) were measured by quantitative analysis in the scintillation counter. The percentage of DNA fragments was calculated in the following manner: […]
# [6] = system: BAF3-bcl2 cells; experiment: Induction of DNA fragmentation by methional in BAF3-bcl2 cells ([3H]-thymidine); format: cell-based, mouse
# Description: as §1, §2
compound,measurement,setting,value
"CSCCC=O [methional, 3-methylthiopropanal]",pIC50,[1],4.00
same,triggering of apoptosis (ladder of DNA fragments of 180 to 200 base pairs on gel),[2],apoptosis was triggered
same,quantity of DNA fragments (<3 kilobases),"[3]; +IL3, 8 hours contact, methional 200-800 μM (concentration not given)",127 10^-9 g DNA/3 × 10^6 cells
same,increase in amount of DNA fragments compared with cells without IL3,[3]; cells treated with IL3 and methional,comparable to the quantity found when the cells were placed in a medium not containing IL3
same,Average Survival Time,[4],27 days
same,percentage of DNA fragments (maximum),[5],26%
same,percentage of DNA fragments (maximum),"[6]; 400 μM methional, 8 hours, control 3%",7%
same,elimination of the bcl2 inhibition of apoptosis,[6]; methional 50-400 μM,did not permit eliminating the inhibition of apoptosis resulting from the bcl2 gene
